# Assay results from US5854250A, “N-benzoylamino acid derivatives, pharmaceutical compositions containing them and process of preparing same” (Gyogyszerkutato Intezet KFT, priority 1997, dated 1998).
# What was measured:
# [1] = tested on: heart-damaging effect of vasopressin; conditions: G. Razzaboni et al.; cited from earlier work
# [2] = acute oral toxicity in rats; conditions: rat, in vivo
# Description: The toxicity of the compounds according to the invention was studied in rats.
# brain homogenate = test: iron(II) ion-dependent peroxidation of brain homogenate; format: biochemical, OFA rats; conditions: rat brain homogenate in Krebs buffer; iron(II) initiated
# Procedure: (§1) The thiobarbituric acid-reactive products were determined by a modification of J. A. Buege [Meth. Enzymology 52, 302 (1978)] as follows. 0.55 ml of 2% thiobarbituric acid was added to the solution and the samples were boiled for 20 minutes. After cooling down, the samples were diluted with distilled water, then chloroform was added. After centrifuging the tubes at 400×g for 7 minutes, the quantity of the thiobarbituric acid-reactive products was determined in the supernatant by spectrophotometry at 535 nm. The effect of the compound to be tested was characterized by its IC50 value (i.e. the concentration resulting in an 50% inhibition). α-Tocopherol was used as reference compound.
# B) The effect of compounds of general formula (I) on the iron(II) ion-dependent peroxidation of brain homogenate
# The measurement was carried out by using the method of J. M. Braughler [J. Biol. Chem. 262, 10438 (1987)].
# In these experiments OFA rats with a body-weight of 150-200 g were decapitated and brain homogenates were prepared in Krebs buffer solution, then the Method A) was followed.
# brain microsomes = test: NADPH-dependent peroxidation of brain microsomes; format: biochemical, OFA rats; conditions: rat brain microsomes, pH 6.8, 15 minutes, read-out: IC50 on brain microsome
# Procedure: C) The effect of compounds of general formula (I) on the NADPH-dependent peroxidation of brain microsomes
# This study was carried out by using the method of T. J. Player and A. A. Morton [J. Neurochem. 37, 422 (1981)].
# OFA rats of 3 months age were decapitated and their whole brain was homogenized in ice-cold 0.25M saccharose solution. After centrifuging the homogenate at 15000×g for 10 minutes, the supernatant was decanted and the residue was further centrifuged at 78000×g for 60 minutes. The preparation having a concentration of 10-20 mg of protein/ml was divided to aliquots.
# 2) Measurement of the microsomal lipid peroxidatiorn
# The measurement was carried out at […] in a reaction mixture with the following composition; 0.05M Tris maleate (pH 6.8) buffer, 1.0 mM KH2 SO4, 1.0 mM ADP, 0.2 mM FeCl3 and 0.4 mM NAOPH. NAOPH was not added to the reaction mixture used for determination of the baseline activity. The reaction was initiated […] by adding 0.5 mg of membrane protein and stopped after incubation for 15 minutes. Subsequently, the samples were centrifuged at 950×g for 20 minutes. The thiobarbituric acid-reactive products were determined in 1 ml of supernatant each by using the method of Z. Dunied [Biochem. Pharmacol. 32, 2283 (1983)].
# small intestine section = test: ischaemic intestine injury in rats; format: in vivo, Male CFY rats; conditions: Rattus norvegicus; 25 mg/kg oral, 2 hours before the operation; read-out: Inhibition of ischaemia (%)
# Procedure: A) Effect of compounds of the general formula (I) on the ischaemic intestine injury in rats
# The method of D. A. Parks et al. [Surgery 92, 869 (1985)] was employed in these experiments.
# Male CFY rats with an average body-weight of 250 g were starved for 24 hours before the surgical intervention but water was allowed ad libitum. The compound to be tested was orally administered in a 25 mg/kg dose by 2 hours before the operation.
# The abdominal wall was opened along the median line under ether anaesthesia. The appropriate small intestine section was made ischaemic by ligating both small branches belonging to the pancreatico-duodenal artery. The shame-operated control animals were subjected only to the surgical intervention but their blood vessels were not ligated. The wound was closed and after 2 hours the abdominal cavity of the animals was again opened under ether anaesthesia. The thickened intestinal section was removed, its length and weight were determined and the significance was calculated by Duncan's test [D. B. Duncan: Biometrics 11, 1 (1955)] (with the weights corrected for a length of 20 mm) on the one hand, between the sham-operated and ischaemized vehicle-control animals; and on the other hand, between the ischaemized control animals and ischaemized animals treated with the compound to be tested. The edema-induced weight increase in the intestinal section was expressed as percentage.
# arachidonic acid = test: iron(II)-dependent peroxidation of arachidonic acid; format: biochemical; conditions: 37° C., in methanol; iron(II) initiated; thiobarbituric acid-reactive products, 535 nm; read-out: IC50 on arachidonic acid substrate
# Procedure: A) The effect of compounds of general formula (I) on the iron(II)-dependentperoxidation of arachidonic acid
# The peroxidation of arachidonic acid was measured by using the method of J. M. Braughler [J. Biol. Chem. 262, 10438 (1986)] at 37° C. in methanol. The compound to be tested was investigated at various concentrations. The peroxidation was initiated by adding 10^-4 mol of iron(II) (ferrous) ion (to result in a final volume of 0.5 ml).
# as §1
# [3] = tested on: reperfusion-induced arrhythmia; test: reperfusion-induced arrhythmia in rats; format: in vivo, male SPRD rats; conditions: for Average duration of VT/VF: one hour before, S ± SE/min
# Procedure: B) Investigations on the model of reperfusion-induced arrhythmia in rats
# In these experiments, the reperfusion-induced arrhythmia was developed in male SPRD rats weighing 400 g in average by using the method Lamontagne et al. [Fundam. Clin. Pharmacol. 3, 671 (1989)].
# The chest of artificially respirated animals was opened under pentobarbital anaesthesia and a thread was implanted under the left coronary. After an equilibration period of 15 minutes, in the case of an arterial blood pressure of at least 60 Hgmm, a myocardial ischaemia was induced by ligating the coronary for 5 minutes. This was followed by a reperfusion lasting for 10 minutes. The duration of arrhythmia, ventricular tachycardia (VT) and ventricular fibrillation (VF), respectively, developed within 3 minutes after reperfusion were registered in a lead-II ECG.
# The average durations of VT and VF, respectively related to 1 minute were determined and the number of deaths induced by arrhythmia was also registered.
# The compound to be tested was orally administered one hour before the experiment.
# The statistical data were calculated by using Duncan's test (duration of VT and VF, respectively) or the chi^2 test (number of deaths) [S. Bolton in: "Pharmaceutical Statistics", pages 169-173 (1990), Marcel Dekkar] following the variance analysis in relation to the vehicle control.
# lipid peroxidation = conditions: J. M. Braughler et al.; cited from earlier work
# [4] = cited from earlier work
# [5] = tested on: dopamine level of corpus striatum; test: neurotoxicity-inhibiting effect in mice (MPTP-induced dopamine depletion); format: in vivo, Male C-57 mice; conditions: for Dopamine level: then 50 mg/kg
# Procedure: C) Study on the neurotoxicity-inhibiting effect in mice This study was carried out by using the method of R. E. Heikkila at al. [Science 224, 1451 (1984)] or by some modification of this method being very suitable to investigate compounds which are potentially active against Parkinson's disease. […] MPTP). […] One hour after the last administration, 40 mg/kg of MPTP and then an additional amount of 50 mg/kg of the compound to be tested were intraperitoneally administered. The animals were killed after 4 days, their brain was removed and the corpus striatum was separated. The dopamine level of corpus striatum was determined by high performance liquid chromatography (HPLC).
# [6] = with MPTP treatment (+), 40 mg/kg, compound 100 mg/kg i.p. once daily for 3 days, a p < 0.01, b p < 0.05 vs MPTP control
# [7] = without MPTP treatment (-), 100 mg/kg i.p. once daily for 3 days
SMILES,LD50 [2] [mg/kg],IC50 (brain homogenate) [µM],IC50 (brain microsomes) [µM],inhibition in vivo at 25 mg/kg (small intestine section) [%],IC50 (arachidonic acid) [µM],further results
COc1cc(C(=O)NCCCCCC(=O)O)ccc1O [6-(4-hydroxy-3-methoxybenzoyl)aminohexanoic acid],–,–,–,–,–,activity against the heart-damaging effect of vasopressin [1]: inactive
CCCCCCCCNC(=O)CCCCCNC(=O)c1cc(O)ccc1O [Example 29],> 1000,9,4.5,52,100,–
CCOC(=O)CCCCCCCCCCCNC(=O)c1cc(O)ccc1O [Example 32],–,12,7.9,–,100,–
"Cc1c(C)c2c(c(C)c1O)CCC(C)(CCCC(C)CCCC(C)CCCC(C)C)O2 (stereo not drawn) [α-Tocopherol, reference compound]",–,7,> 100,–,1.5,"Average duration of VT/VF ([3]; 100 mg/kg p.o., **p < 0.01): 33.1 ± 7.1 S/min; No. of deaths (lethal VT/VF) ([3]; 100 mg/kg p.o., *p < 0.05): 4/8; Average duration of VT/VF ([3]; 250 mg/kg p.o., **p < 0.01): 27.2 ± 7.1 S/min; No. of deaths (lethal VT/VF) ([3]; 250 mg/kg p.o., *p < 0.05): 1/8"
C[C@@H]1C[C@H]2[C@@H]3CCC4=CC(=O)C=C[C@]4(C)C3=CC[C@]2(C)[C@H]1C(=O)CN1CCN(c2cc(N3CCCC3)nc(N3CCCC3)n2)CC1 [Example U74006F],–,–,–,–,–,inhibition of lipid peroxidation (lipid peroxidation): strongly inhibited; in vivo activity [4]: proven
"CCOC(=O)CCCCCCCCCCNC(=O)c1cc(O)ccc1O [Example 31, ethyl 11-[N-(2,5-dihydroxybenzoyl)amino]undecanoate]",–,16,6.6,–,100,–
"O=C(O)CCCNC(=O)c1cc(O)ccc1O [Example 36, 4-[N-(2,5-dihydroxybenzoyl)amino]butyric acid]",> 1000,100,100,76,3.4,"No. of deaths (lethal VT/VF) ([3]; 50 mg/kg p.o.): 4/8; Average duration of VT/VF ([3]; 50 mg/kg p.o.): 33.0 ± 9.9 S/min; Average duration of VT/VF ([3]; 100 mg/kg p.o., **p < 0.01): 20.6 ± 6.3 S/min; No. of deaths (lethal VT/VF) ([3]; 100 mg/kg p.o., *p < 0.05): 0/10; Dopamine level, % of control ([5]; with MPTP treatment (+)): 33%; Dopamine level [5, 6]: 6,68 ± 1,0 μg/g tissue; Dopamine level, % of control ([5]; without MPTP treatment (-)): 103%; Dopamine level [5, 7]: 20,67 ± 0,5 μg/g tissue"
O=C(O)CCCCCNC(=O)c1cc(O)ccc1O [Example 25],> 1000,100,100,61,15,"No. of deaths (lethal VT/VF) ([3]; 50 mg/kg p.o.): 4/8; Average duration of VT/VF ([3]; 50 mg/kg p.o.): 37.3 ± 5.7 S/min; Average duration of VT/VF ([3]; 100 mg/kg p.o., **p < 0.01): 28.0 ± 5.1 S/min; No. of deaths (lethal VT/VF) ([3]; 100 mg/kg p.o., *p < 0.05): 1/10"
O=C(NCCCCCC(=O)N1CCCC1=O)c1cc(O)ccc1O [Example 30],–,–,–,70,–,–
"COC(=O)CCCNC(=O)c1cc(O)ccc1O [Example 40, methyl 4-[N-(2,5-dihydroxybenzoyl)amino]butanoate]",–,–,–,72,–,–
O=C(NCCCCCC(=O)N1CCN(c2cc(N3CCCC3)nc(N3CCCC3)n2)CC1)c1cc(O)ccc1O [Example 35],> 1000,3.3,5.3,63,27,–
"COC(=O)CCCCCNC(=O)c1cc(O)ccc1O [Example 41, Methyl 6-{[N-(2,5-dihydroxybenzoyl)amino]hexanoate}]",–,–,–,75,–,–
O=C(NCCCCCC(=O)N1CCN(CCCc2ccccc2)CC1)c1cc(O)ccc1O [Example 34],–,40,8.6,–,100,–
O=C(O)CCCCNC(=O)c1cc(O)ccc1O [Example 37],> 1000,100,100,73,31,–
O=C(O)CCCCCCCCCCCNC(=O)c1cc(O)ccc1O [Example 24],> 1000,4.8,37,63,40,"Dopamine level, % of control ([5]; with MPTP treatment (+)): 24%; Dopamine level [5, 6]: 4,85 ± 1,7 μg/g tissue; Dopamine level, % of control ([5]; without MPTP treatment (-)): 102%; Dopamine level [5, 7]: 20,44 ± 0,6 μg/g tissue"
